From ChEMBL document CHEMBL1157539, “Thousands of chemical starting points for antimalarial lead identification” (Nature, 2010)

tested on: Plasmodium falciparum; assay: GSK_TCMDC: Inhibition of Plasmodium falciparum 3D7 in whole erythrocytes, using parasite LDH activity as an index of growth.; type: functional, organism-based; conditions: Plasmodium falciparum, 3D7

Row | SMILES | XC50
1 | CC(=O)c1cccc(S(=O)(=O)NCCCNc2nc3cc(C)cc(C)c3cc2C#N)c1 | 914 nM
2 | CCCCCN1CCCC1CNS(=O)(=O)c1ccc(C(=O)Nc2ccc(C(F)(F)F)cc2)cc1 (stereo not drawn) | 838 nM
3 | CC(NCC(O)Cn1c2ccccc2c2ccccc21)c1ccccc1 (stereo not drawn) | 931 nM
4 | C[C@@H]([C@@H](CCCCc1ccccc1)C(=O)N[C@H](C(=O)Nc1cccnc1)C(C)(C)C)N(O)C=O | 929 nM
5 | N=C(NCCc1ccc(Cl)cc1)c1ccc(Cl)c(Cl)c1 | 1100 nM
6 | CCCOc1cc(Cc2cnc(N)nc2N)cc(OC)c1OC | 1170 nM
7 | CCn1c(Cc2ccccc2)nnc1SCC(=O)N1c2ccccc2Sc2ccccc21 | 588 nM
8 | Cc1ccccc1OCC(=O)Nc1ccc(-c2nc3cc4ccccc4cc3[nH]2)cc1 | 753 nM
9 | O=[N+]([O-])c1ccc2nccnc2c1 | 1070 nM
10 | CN(C)CCOc1cc(NC(=O)Nc2cccc3c(-c4ccncc4)cccc23)ccc1I | 734 nM
11 | COc1ccc(CNC(=O)Nc2cc3cc(-c4ccc(CN5CCCC5)cc4)ccc3n3c(C)nnc23)cc1 | 654 nM
12 | O=C(N[C@H]1CCN(CCc2ccc(O[C@H]3CCNC3)c(Cl)c2)C1)c1ccc(Cl)c(Cl)c1 | 890 nM
13 | CC(O)CNc1nc2ccccc2n1CC(=O)Nc1cccc(C(=O)Nc2cccc(C(F)(F)F)c2)c1 (stereo not drawn) | 103 nM
14 | CCCCNC(=O)[C@H](Cc1ccccc1)NC(=O)c1ccc(O)c(-c2ccc(Cl)c(Cl)c2)c1 | 527 nM
15 | Cc1nc(-c2cccc3c(NC(=O)N4CCc5cc6nccc(N7CCN(C)CC7)c6cc54)cccc23)no1 | 760 nM
16 | COc1cc(OC)cc(-c2nn(-c3ccc([N+](=O)[O-])cc3C#N)c(=S)n2CC2CCCO2)c1 (stereo not drawn) | 852 nM
17 | COc1ccccc1C1CCN(C2CCC(NC(=O)/C=C/c3ccc(C(F)(F)F)cc3)CC2)CC1 (stereo not drawn) | 1160 nM
18 | O=C(Nc1cccc(CN2CCCN(Cc3ccc(O)cc3)CC2)c1)c1ccc2ccccc2c1 | 373 nM
19 | Nc1ncc(Cc2cc(Cl)c(N)c3ncccc23)c(N)n1 | 1120 nM
20 | CCCCCCCc1cc(O)c2c3c(c(=O)oc2c1)CN(C)CC3 | 144 nM
21 | CC(C)c1ccc(C(NC(=O)C2CCCCC2)c2ccc3cccnc3c2O)cc1 (stereo not drawn) | 603 nM
22 | CC(=O)Nc1ccc(Cl)c(Cl)c1 | 41.6 nM
23 | CC(C)(O)CC(C)(C)c1cc(Cl)ccc1O | 455 nM

Row | SMILES | XC50
24 | c1ccc2cc(CNCCCN3CCN(CCCNCc4ccc5ccccc5c4)CC3)ccc2c1 | 545 nM
25 | CN(CCNCc1ccc(-c2cccc(-c3nc4ccccc4[nH]3)c2)cc1)S(C)(=O)=O | 945 nM
26 | COc1cc(C(C)C)ccc1N1CCN(CCCCNC(=O)c2ccc(NC(=O)c3ccc(Cl)cc3)cc2)CC1 | 576 nM
27 | N#Cc1ccc(CN2CCC(Oc3ccc(NC(=O)c4ccco4)cc3Cl)C2)cc1 (stereo not drawn) | 331 nM
28 | Cc1ccc(N2C(=O)C3C(C2=O)C2(c4ccccc4)C(=O)C3(c3ccccc3)C(c3ccccc3)=C2c2ccccc2)cc1 (stereo not drawn) | 869 nM
29 | COc1ccc2c(c1)CC1CN(CCCCNC(=O)c3ccc(NC(=O)c4cc(Cl)cc(Cl)c4)cc3)CCN1C2 (stereo not drawn) | 767 nM
30 | CN(C(=O)C1(c2ccc(Cl)cc2)CC1)C1CCN(CCCCCNC(=O)/C=C/c2ccc(Cl)c(Cl)c2)CC1 | 769 nM
31 | Cc1nc(-c2nc(NCCc3c(C)noc3C)ncc2-c2ccsc2)sc1C | 256 nM
32 | CN1CCC(N2CCN(Cc3cccc(-c4ccc(-c5nc6ccccc6[nH]5)cc4)c3)CC2)CC1 | 156 nM
33 | CC(C)c1ccc(NC(=O)c2ccc(CN3CCCN(Cc4cccc(Cl)c4)CC3)cc2)cc1 | 1160 nM
34 | Fc1cccc(COc2ccc(Nc3ncnc4ccc(C#C[C@H]5CCCN5)cc34)cc2Cl)c1 | 882 nM
35 | O=C(NCCN1CCC(c2ncc(-c3ccccc3)o2)CC1)c1ccc(NC(=O)c2ccc(Cl)cc2)cc1 | 244 nM
36 | CC[C@@H]([C@@H](Cc1cc2ccccc2s1)C(=O)N[C@@H](CCCCNC(=O)OCc1ccccc1)C(=O)Nc1ccccn1)N(O)C=O | 227 nM
37 | CC(C)Cc1ccc(N2CCN(CCCCNC(=O)c3ccc(NC(=O)c4ccc(Cl)c(Cl)c4)cc3)CC2)cc1 | 1200 nM
38 | O=C(Nc1cccc(CN2CCCN(Cc3cccc(F)c3)CC2)c1)c1ccc(Cl)c(Cl)c1 | 923 nM
39 | Oc1ccc(CCNc2nc(NCCCOc3ccccc3-c3ccncc3)nc(N3CCNCC3)n2)cc1 | 1110 nM
40 | CCN(CC)CCN(Cc1ccc(-c2ccc(C(F)(F)F)cc2)cc1)C(=O)Cn1c(CCc2cccc(F)c2F)nc(=O)c2cc(F)c(F)cc21 | 833 nM
41 | Cc1ccc(-c2ccc3c(c2)C=C(C(=O)NCC2CCN(CC4CCN(C(=O)/C=C/c5ccc(Cl)c(Cl)c5)CC4)CC2)CCC3)cc1 | 777 nM
42 | Nc1nc(N)c2c(ccc3c2ncn3Cc2ccccc2)n1 | 93.4 nM
43 | CN1CCCN(Cc2cccc(-c3ccc(CNC(=O)c4cccc(Cl)c4)c(F)c3)c2)CC1 | 190 nM
44 | CN1CCC[C@H]1COc1ccc(CN2CC[C@H](NC(=O)c3ccc(Cl)c(Cl)c3)C2)cc1Cl | 1150 nM
45 | O=C(Nc1ccc([N+](=O)[O-])cc1Cl)c1cc2ccccc2cc1O | 1010 nM
46 | N=C(/N=C(/NCCCCCCN/C(=N\C(=N)Nc1ccc(Cl)cc1)N1CCOCC1)N1CCOCC1)Nc1ccc(Cl)cc1 | 713 nM

Row | SMILES | XC50
47 | N#Cc1cccc(C(=O)Nc2cccc(-c3ccc(CN4CCC(O)CC4)cc3)c2)c1 | 1300 nM
48 | Cc1[nH]c(C)c(-c2ccc(CCc3ccc(C(F)(F)F)cc3)nc2)c(=O)c1Cl | 88.1 nM
49 | O=S(=O)(NCCN1CCCC1)c1cccc(-c2cccc(CNCc3ccc(F)cc3)c2)c1 | 848 nM
50 | COc1ccc(CC(=O)Nc2ccc(-c3cccc(-c4nc5cccc(C)c5[nH]4)c3)cc2)cc1O | 452 nM
51 | CCCCCCN1CCC(NCc2cccc(-n3ccnc3)c2)CC1 | 255 nM
52 | CC(C)(C)c1ccc(CNC(=O)/C=C/c2ccc(-c3nc4cc(C(C)(C)C)ccc4[nH]3)cc2)cc1 | 545 nM
53 | COc1ccc(CN(C)CCCSc2ccc(NC(=O)c3cccc4c(=O)cc(-c5ccccc5)[nH]c34)cc2)cc1OC | 920 nM
54 | O=C(Cc1ccccc1)NC(CCN1CCC(N(C2CC2)S(=O)(=O)c2cccc(C(F)(F)F)c2)CC1)c1ccc(Cl)c(Cl)c1 (stereo not drawn) | 1270 nM
55 | Cc1cccc2nc(-c3ccc(-c4cccc(CN5CCN(c6ccncc6)CC5)c4)s3)[nH]c12 | 126 nM
56 | CCN1CCN(CCCNc2c3ccc(Cl)cc3nc3ccc(OC)cc23)CC1 | 149 nM
57 | COc1ccccc1CCNc1ncnc2c1[nH]c1ccc(F)cc12 | 837 nM
58 | OCCOCCNCc1cccc(C#Cc2cc3ncnc(Nc4ccc(OCc5cccc(F)c5)c(Cl)c4)c3s2)n1 | 781 nM
59 | COc1ccc(NC(=O)Nc2cccc(-c3ccc(-c4nc5cccc(C)c5[nH]4)s3)c2)cc1 | 671 nM
60 | CC(C)CC1c2[nH]c3ccccc3c(=O)c2CN1C(=O)OC(C)(C)C (stereo not drawn) | 221 nM
61 | CCOC(=O)c1c(NC(NC(=O)c2ccc(C(C)(C)C)cc2)C(Cl)(Cl)Cl)sc2c1CCCC2 (stereo not drawn) | 809 nM
62 | Cc1[nH]c2cc(F)ccc2c1C1=CCN(CCCCC2(C)C(=O)Nc3ccccc32)CC1 (stereo not drawn) | 292 nM
63 | COC(=O)c1cccc(CNCc2cccc(-c3ccc(-c4nc5cc(C(F)(F)F)ccc5[nH]4)cc3)c2)c1 | 257 nM
64 | COCCCNc1nc2cc(OC)c(OC)cc2c2nc(-c3ccccc3)nn12 | 192 nM
65 | CCCN1CCN(CCCNC(=O)c2cc3c(Cl)nc4ccc(C)cc4c3s2)CC1 | 802 nM
66 | CCC(C)(C)c1ccc(OCCCC(=O)Nc2ccc(Cl)c([N+](=O)[O-])c2)c(C(C)(C)CC)c1 | 969 nM
67 | Cc1ncc([N+](=O)[O-])n1CCOC(=O)NC(Nc1ccc(Br)cc1)C(Cl)(Cl)Cl (stereo not drawn) | 962 nM
68 | COc1ccc2nccc([C@@H](O)CN3CCC(NCc4cc5cc(OC(F)(F)F)ccc5[nH]4)CC3)c2c1 | 127 nM
